Measured values from patent US20110118239A1, “PREPARATION AND ENANTIOMERIC SEPARATION OF 7-(3-PYRIDINYL)-1,7-DIAZASPIRO[4.4]NONANE AND NOVEL SALT FORMS OF THE RACEMATE AND ENANTIOMERS” (Targacept, Inc., priority 2008, published 2011).
Values joined by “and” are separate entries in the source; they are usually repeats but may differ in a detail not shown here. Equal entries are not always repeated. Structures can show the parent of a compound that is named as a salt. Where two headings read alike, the source gives them in different places.

Columns and labels:
[1] = Dynamic vapor sorption (DVS) analysis; type: physicochemical
Protocol: In a dynamic vapor sorption (DVS) apparatus, a sample of (R)-7-(3-pyridinyl)-1,7-diazaspiro[4.4]nonane mono-p-hydroxybenzoate (˜14.1 mg) was subjected to gradually increasing, followed by then gradually decreasing, humidity over a period of about 10 h (see details below). […] Given its relatively high melting point and crystalline nature, it is therefore a particularly good candidate for drug development.

[2] = target: Human Ganglion (Homo sapiens, UniProt P30926+P32297); test: Function at human ganglion subtype, single point 100 μM; type: cell-based
Protocol: (§1) Binding and function of the compounds to relevant receptor sites was determined in accordance with the techniques described in PCT WO 2008/057938. Inhibition constants (Ki values), reported in nM, were calculated from the IC50 values using the method of Cheng et al., Biochem. Pharmacol. 22: 3099 (1973). […] Thus, the compounds of the present invention are selective modulators of the α4β2 NNR subtype.

[3] = test system: non-elective sigma; test: Standard receptor screen at 10 μM: sigma; type: binding; details: hydrochloride salt
Protocol: (§2) Both Compound A, (R)-7-(3-pyridinyl)-1,7-diazaspiro[4.4]nonane, and Compound B, (S)-7-(3-pyridinyl)-1,7-diazaspiro[4.4]nonane, each as their hydrochloride salts, were screened, at 10 μM concentration, against a standard set of receptors. […] Thus, the two stereoisomers differentiate from one another in terms of their non-nicotinic receptor binding characteristics. This differentiation is believed to translate into a differentiation between the ability of each of (R)-7-(3-pyridinyl)-1,7-diazaspiro[4.4]nonane and (S)-7-(3-pyridinyl)-1,7-diazaspiro[4.4]nonane to treat various disease states, including, for example, the ability of Compound A to enhance desensitization of α4β2 NNRs.

[4] = target: Human Muscle (Homo sapiens, UniProt P02708+P07510+Q07001); test: Function at human muscle subtype, single point 100 μM; type: cell-based
Human Muscle, sequence (P02708 21-457): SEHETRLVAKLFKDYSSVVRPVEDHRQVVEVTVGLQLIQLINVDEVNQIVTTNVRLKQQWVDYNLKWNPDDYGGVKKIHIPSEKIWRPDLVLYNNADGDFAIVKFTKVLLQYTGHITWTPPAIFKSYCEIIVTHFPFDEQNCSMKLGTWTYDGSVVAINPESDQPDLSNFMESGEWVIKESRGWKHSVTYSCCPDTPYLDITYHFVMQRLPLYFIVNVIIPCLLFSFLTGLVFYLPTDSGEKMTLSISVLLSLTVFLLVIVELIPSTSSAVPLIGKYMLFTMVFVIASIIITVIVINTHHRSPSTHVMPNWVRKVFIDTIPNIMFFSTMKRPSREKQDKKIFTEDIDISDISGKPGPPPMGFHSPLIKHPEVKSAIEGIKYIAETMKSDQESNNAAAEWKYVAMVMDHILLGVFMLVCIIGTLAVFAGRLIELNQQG
Human Muscle, sequence (P11230 24-501 partner): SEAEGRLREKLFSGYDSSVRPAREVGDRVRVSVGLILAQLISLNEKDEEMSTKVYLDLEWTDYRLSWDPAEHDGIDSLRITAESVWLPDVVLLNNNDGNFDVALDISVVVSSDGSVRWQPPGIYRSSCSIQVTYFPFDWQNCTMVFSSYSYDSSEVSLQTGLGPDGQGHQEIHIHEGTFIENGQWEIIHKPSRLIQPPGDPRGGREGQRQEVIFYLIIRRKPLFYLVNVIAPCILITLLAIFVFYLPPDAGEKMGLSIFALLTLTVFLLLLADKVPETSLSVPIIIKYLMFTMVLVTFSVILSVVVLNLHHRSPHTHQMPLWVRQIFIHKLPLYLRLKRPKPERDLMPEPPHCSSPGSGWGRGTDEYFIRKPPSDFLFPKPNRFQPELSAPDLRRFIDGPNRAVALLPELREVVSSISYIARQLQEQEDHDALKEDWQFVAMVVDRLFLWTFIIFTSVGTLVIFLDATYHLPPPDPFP
Human Muscle, sequence (P07510 23-517): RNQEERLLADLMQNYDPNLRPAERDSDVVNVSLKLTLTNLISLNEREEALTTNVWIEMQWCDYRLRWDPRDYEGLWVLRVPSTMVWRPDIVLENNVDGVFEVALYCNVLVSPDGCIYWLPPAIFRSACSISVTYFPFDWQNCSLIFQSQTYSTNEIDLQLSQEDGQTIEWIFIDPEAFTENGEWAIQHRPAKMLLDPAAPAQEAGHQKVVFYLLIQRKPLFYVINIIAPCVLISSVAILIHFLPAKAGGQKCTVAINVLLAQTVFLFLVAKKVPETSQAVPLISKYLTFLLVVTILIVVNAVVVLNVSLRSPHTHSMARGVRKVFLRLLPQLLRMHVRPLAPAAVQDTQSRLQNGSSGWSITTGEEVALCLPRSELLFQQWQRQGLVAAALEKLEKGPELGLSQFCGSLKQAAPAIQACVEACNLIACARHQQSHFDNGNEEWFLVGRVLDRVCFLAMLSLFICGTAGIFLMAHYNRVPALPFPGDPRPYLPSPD
Human Muscle, sequence (Q07001 22-517): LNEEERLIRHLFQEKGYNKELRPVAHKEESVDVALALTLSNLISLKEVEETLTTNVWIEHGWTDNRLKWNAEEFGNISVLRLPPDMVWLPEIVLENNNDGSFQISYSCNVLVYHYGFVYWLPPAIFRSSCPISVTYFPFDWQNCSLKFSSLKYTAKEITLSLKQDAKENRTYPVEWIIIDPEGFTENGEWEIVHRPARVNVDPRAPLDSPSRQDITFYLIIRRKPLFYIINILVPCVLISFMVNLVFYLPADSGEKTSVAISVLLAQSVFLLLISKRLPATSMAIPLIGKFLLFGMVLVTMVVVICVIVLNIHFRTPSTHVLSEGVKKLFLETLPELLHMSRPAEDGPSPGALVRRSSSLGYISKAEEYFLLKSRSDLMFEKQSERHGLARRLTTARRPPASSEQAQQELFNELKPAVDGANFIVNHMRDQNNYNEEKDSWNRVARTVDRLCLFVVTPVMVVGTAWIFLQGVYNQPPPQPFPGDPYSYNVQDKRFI
Protocol: as §1

[5] = test system: animal models of depression and anxiety; test: Validated animal models of depression and anxiety (summary statement); details: in vivo
[6] = target: T1, muscarinic M1 (Homo sapiens, UniProt P11229); test: Standard receptor screen at 10 μM: muscarinic M1; type: binding; details: hydrochloride salt, read-out: inhibition at muscarinic M1 receptors
T1 sequence (P11229 1-460): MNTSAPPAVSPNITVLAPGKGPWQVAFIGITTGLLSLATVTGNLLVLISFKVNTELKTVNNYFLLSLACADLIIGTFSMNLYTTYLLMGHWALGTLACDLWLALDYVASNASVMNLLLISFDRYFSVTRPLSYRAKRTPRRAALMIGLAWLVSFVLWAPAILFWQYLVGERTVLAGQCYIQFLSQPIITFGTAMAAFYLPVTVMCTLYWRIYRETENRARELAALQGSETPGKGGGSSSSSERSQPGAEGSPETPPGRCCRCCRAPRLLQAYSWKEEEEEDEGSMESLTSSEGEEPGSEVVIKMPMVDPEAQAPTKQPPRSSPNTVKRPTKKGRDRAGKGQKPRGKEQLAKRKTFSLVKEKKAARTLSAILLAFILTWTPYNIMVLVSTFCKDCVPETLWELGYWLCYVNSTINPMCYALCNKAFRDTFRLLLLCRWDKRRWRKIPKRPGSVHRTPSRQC
Protocol: as §2

[7] = test system: nicotinic; test: Standard receptor screen at 10 μM: nicotinic; type: binding; details: hydrochloride salt
Protocol: as §2

[8] = test system: non-selective peripheral muscarinic; test: Standard receptor screen at 10 μM: non-selective peripheral muscarinic; type: binding; details: hydrochloride salt
Protocol: as §2

[9] = target: Rat α7 (Rattus norvegicus, UniProt Q05941); test: Binding to rat α7 NNR (Ki); details: read-out: Rat α7 Ki
Rat α7, sequence (Q05941 23-502): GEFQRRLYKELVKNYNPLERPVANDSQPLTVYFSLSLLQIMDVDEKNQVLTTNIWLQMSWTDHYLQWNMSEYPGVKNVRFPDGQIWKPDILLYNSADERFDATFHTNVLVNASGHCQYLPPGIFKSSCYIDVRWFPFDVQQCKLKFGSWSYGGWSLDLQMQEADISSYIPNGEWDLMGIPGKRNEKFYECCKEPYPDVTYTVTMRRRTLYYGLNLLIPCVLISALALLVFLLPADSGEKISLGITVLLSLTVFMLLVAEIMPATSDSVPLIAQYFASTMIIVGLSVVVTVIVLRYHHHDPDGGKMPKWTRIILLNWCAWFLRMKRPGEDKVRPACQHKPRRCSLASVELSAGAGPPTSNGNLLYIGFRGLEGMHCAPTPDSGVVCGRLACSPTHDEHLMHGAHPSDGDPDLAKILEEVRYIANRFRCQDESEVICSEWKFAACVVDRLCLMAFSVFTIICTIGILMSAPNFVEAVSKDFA
Protocol: as §1

[10] = test system: non-selective central muscarinic; test: Standard receptor screen at 10 μM: non-selective central muscarinic; type: binding; details: hydrochloride salt
Protocol: as §2

[11] = target: Rat α4β2 (Rattus norvegicus, UniProt P09483+P12390); test: Binding to rat α4β2 NNR (Ki); details: read-out: Rat α4β2 Ki
Rat α4β2, sequence (P09483 31-630): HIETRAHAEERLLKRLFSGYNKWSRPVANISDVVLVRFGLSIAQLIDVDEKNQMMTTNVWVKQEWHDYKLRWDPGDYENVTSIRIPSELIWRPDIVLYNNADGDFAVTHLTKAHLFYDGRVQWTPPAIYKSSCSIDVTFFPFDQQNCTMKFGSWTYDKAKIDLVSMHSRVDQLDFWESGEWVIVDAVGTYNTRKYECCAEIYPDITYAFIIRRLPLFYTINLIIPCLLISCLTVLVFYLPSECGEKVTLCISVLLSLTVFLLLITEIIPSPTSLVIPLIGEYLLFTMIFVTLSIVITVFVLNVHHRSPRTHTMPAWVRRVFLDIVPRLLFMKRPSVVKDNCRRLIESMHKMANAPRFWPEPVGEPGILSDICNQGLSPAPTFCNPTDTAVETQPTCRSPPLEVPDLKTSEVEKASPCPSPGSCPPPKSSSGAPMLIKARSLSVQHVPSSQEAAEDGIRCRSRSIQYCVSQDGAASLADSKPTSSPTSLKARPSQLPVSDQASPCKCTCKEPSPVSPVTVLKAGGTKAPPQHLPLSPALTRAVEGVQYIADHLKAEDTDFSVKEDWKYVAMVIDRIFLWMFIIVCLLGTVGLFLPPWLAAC
Rat α4β2, sequence (P12390 25-500): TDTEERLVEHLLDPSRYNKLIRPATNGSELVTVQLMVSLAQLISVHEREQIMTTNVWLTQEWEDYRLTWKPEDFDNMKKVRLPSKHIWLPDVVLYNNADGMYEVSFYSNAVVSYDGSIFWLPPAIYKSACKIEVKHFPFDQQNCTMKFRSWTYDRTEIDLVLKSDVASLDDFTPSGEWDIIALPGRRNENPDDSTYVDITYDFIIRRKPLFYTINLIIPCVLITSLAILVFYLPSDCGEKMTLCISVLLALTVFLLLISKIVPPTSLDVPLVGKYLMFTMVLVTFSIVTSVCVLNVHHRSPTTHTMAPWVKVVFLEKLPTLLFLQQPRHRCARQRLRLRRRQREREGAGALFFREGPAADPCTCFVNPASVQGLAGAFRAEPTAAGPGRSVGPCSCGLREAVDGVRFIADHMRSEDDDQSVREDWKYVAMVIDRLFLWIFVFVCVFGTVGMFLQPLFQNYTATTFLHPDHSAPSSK
Protocol: as §1

[12] = test system: rats; test: Seizure/convulsion induction after acute dose, rats; type: in vivo; details: male rats; acute oral dose of 300 mg/kg
Protocol: For example, preclinically, Compound C induced seizures following acute doses:
Likewise, Compound B induced convulsion in 1/6 male rats following an acute oral dose of 300 mg/kg.
In fact, the effect of Compound A was not statistically different from the vehicle control.

[13] = target: T2, human α4β2 NNRs (Homo sapiens, UniProt P17787+P43681); test: Function at human α4β2 NNRs, SH-EP1/human a4b2 cells, FLIPR calcium; type: cell-based; details: SH-EP1/human a4b2 cells, FLIPR calcium
T2 construct: expressed in transfected cells; host or cells: SH-EP1
T2 sequence (P43681 29-627 limits assumed): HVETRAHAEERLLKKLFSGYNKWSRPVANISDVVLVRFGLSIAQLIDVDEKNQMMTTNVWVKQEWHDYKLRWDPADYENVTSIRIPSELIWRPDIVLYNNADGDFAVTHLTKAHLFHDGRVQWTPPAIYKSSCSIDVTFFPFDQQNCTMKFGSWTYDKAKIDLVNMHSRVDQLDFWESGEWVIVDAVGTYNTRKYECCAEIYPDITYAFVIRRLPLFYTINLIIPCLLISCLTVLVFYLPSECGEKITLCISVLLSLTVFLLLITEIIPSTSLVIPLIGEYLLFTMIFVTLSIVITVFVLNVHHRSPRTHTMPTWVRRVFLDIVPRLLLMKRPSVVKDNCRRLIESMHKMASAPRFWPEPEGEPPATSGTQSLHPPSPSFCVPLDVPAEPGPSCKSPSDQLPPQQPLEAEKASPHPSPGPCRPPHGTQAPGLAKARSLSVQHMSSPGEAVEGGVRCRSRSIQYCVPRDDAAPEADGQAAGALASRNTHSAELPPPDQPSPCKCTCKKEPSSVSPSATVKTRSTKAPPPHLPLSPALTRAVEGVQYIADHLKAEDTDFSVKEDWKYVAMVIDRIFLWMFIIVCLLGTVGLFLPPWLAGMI
T2 sequence (P17787 26-502): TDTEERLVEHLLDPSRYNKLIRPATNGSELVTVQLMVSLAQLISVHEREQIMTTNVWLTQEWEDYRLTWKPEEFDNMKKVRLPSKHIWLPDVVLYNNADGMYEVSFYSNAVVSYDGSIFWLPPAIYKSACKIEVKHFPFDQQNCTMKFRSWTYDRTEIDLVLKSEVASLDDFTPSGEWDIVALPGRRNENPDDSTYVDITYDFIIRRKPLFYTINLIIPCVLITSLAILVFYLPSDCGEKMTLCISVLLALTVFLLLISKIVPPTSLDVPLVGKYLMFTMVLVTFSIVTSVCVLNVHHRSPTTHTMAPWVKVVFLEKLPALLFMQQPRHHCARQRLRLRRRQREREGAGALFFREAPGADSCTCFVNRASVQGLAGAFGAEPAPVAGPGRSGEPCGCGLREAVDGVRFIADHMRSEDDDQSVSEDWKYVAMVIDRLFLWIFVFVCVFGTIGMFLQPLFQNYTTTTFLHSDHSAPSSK
Protocol: as §1
After the loading period, plates were equilibrated to room temperature and the cells exposed to the test article ([…]) or nicotine or buffer alone on a FLIPR (Molecular Devices). Fluorescence (at 485 nm) was monitored throughout the experiment. The test article change in fluorescence was compared to both a positive control (10 μM nicotine) and a negative control (buffer alone) to determine the percent response relative to that of nicotine.

[14] = target: histamine H3 (Homo sapiens, UniProt Q9Y5N1); test: Standard receptor screen at 10 μM: histamine H3; type: binding; details: hydrochloride salt, read-out: inhibition at histamine H3 receptors
histamine H3, sequence (Q9Y5N1 whole entry): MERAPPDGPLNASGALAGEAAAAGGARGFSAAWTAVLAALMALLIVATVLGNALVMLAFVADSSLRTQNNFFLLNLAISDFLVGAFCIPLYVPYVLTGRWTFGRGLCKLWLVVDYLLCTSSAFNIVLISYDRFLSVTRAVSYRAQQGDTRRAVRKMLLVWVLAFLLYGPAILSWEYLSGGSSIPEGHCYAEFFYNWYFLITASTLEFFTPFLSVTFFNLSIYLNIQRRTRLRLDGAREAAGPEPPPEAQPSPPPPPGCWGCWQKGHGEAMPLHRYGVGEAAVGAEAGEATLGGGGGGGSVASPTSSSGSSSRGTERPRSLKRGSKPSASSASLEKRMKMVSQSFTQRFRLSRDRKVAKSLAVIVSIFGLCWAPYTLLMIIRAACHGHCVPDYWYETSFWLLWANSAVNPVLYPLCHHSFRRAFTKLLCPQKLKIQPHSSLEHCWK
Protocol: as §2

[15] = target: Human α4β2 (Homo sapiens, UniProt P17787+P43681); test: Binding to human α4β2 NNR (Ki); details: read-out: Human α4β2 Ki
Protocol: as §1

[16] = Single rising dose (SRD) study of Compound C, plasma pharmacokinetics of racemate and enantiomers; type: in vivo; details: for t1/2 (mean) / Cmax / Tmax / AUC(0-inf) / half-life: plasma; for t1/2 (mean): Table 3; for Cmax / Tmax / AUC(0-inf) / half-life: human, po; for AUC(0-inf): read-out: AUCinf (mean); for half-life: read-out: Mean (SD) Terminal Elimination Half-life (converted)
Protocol: A single, rising dose (SRD) study was performed with Compound C (the racemate). Plasma samples were analyzed for the content of the two enantiomers, Compound A (substantially pure R), Compound B (substantially pure S). Three dose groups (Compound C) were analyzed, 50, 100, and 400 mg, and four subjects were randomly selected from the 6 subjects tested to receive active treatment in each cohort examined in the SRD study.

[17] = test system: A/J mice; test: Depression model, tail suspension (TS); type: in vivo; details: 20 mg/kg, 10 min test
Protocol: On the day of the test, A/J mice were brought to acclimate to the testing room for one hour. Eight animals were tested in each run. Following pretreatment with vehicle, desipramine (20 mg/kg) or Compound A, p-hydroxybenzoate (0.1, 0.3, and 1 mg/kg), a piece of transparent (Scotch) tape was attached to the tail of each mouse from about mid-tail with approximately 2 cm of tape past the end of the tail. The mice were then placed in the tail suspension chambers (white polyvinylchloride cubicles measuring 33×33×31.75 cm; Med Associates Inc., St Albans, Vt.). The mice were suspended from the hook of the TS force transducer via the tail tape. The force transducer transmitted the movements of the mouse to a recording device connected to a computer. Immobility time, struggle time, and intensity were automatically recorded for each min during the 10 min test period. Upon completion of the TS test, the mice were returned to their home cage and then to the animal colony. The TS chambers were cleaned between sessions. Data were analyzed by repeated measures and one-way analysis of variance (ANOVA) followed by Fisher PLSD post-hoc comparisons. An effect was considered significant if p<0.05.

## O=C(O)CCC(=O)O.c1cncc(N2CCC3(CCCN3)C2)c1 (stereo not drawn)
other
  melting point: 131.5 to 133 °C

## Cl.Cl.c1cncc(N2CCC3(CCCN3)C2)c1 (stereo not drawn)
other
  melting point: 242 to 244 °C

## O.O=C(O)C(=O)O.O=C(O)C(=O)O.c1cncc(N2CCC3(CCCN3)C2)c1 (stereo not drawn) (hydrate or solvate)
other
  melting point: 200 to 201.5 °C

## c1cncc(N2CCC3(CCCN3)C2)c1 (racemic) (as salt: hydrochloride) [Compound C, 7-(3-pyridinyl)-1,7-diazaspiro[4.4]nonane]
other
  melting point: 227 to 232 °C and 227 to 233 °C

## O=C(O)c1ccc(O)cc1.c1cncc(N2CC[C@]3(CCCN3)C2)c1 [(R)-7-(3-pyridinyl)-1,7-diazaspiro[4.4]nonane mono-p-hydroxybenzoate]
[1]; DVS
  stability to humidity: particularly stable to high humidity
[1]; increasing then decreasing humidity over about 10 h
  weight gain during the course of the DVS study: less than 0.2 wt %

## c1cncc(N2CC[C@@]3(CCCN3)C2)c1 [Compound B, (S)-7-(3-pyridinyl)-1,7-diazaspiro[4.4]nonane]
[2]
  Human Ganglion SP (100 μM): 18
[3]
  inhibition at non-elective sigma receptors: 56 % inhibition
[4]
  Human Muscle SP (100 μM): <1
[5]
  Efficacy in multiple validated animal models of depression and anxiety: failed to demonstrate activity
[6]
  inhibition at 10 µM: 53%
[7]
  inhibition at nicotinic receptors: 99 % inhibition
[8]
  inhibition at non-selective peripheral muscarinic receptors: 84 % inhibition
[9]
  Ki: > 10000 nM
[10]
  inhibition at non-selective central muscarinic receptors: 84 % inhibition
[11]
  Ki: 82 nM
[12]
  induced convulsion (animals affected): 1/6
[13]; read-out: Human α4β2 EC50
  EC50: 3900 nM
[13]; relative to 10 μM nicotine, read-out: Human α4β2 Emax (% of nic resp)
  Emax: 87%
[14]
  inhibition at 10 µM: 58%
[15]
  Ki: 30 nM
[16]; 50 mg Compound C (n = 4)
  t1/2 (mean): 21.0 h
  Cmax: 12.1 ng/mL
  Tmax: 3.13 h
  AUC(0-inf): 237 ng·h/mL
  half-life: 21 h
[16]; 100 mg Compound C (n = 4)
  t1/2 (mean): 17.8 h
  Cmax: 24.6 ng/mL
  Tmax: 2.75 h
  AUC(0-inf): 364 ng·h/mL
  half-life: 17.8 h
[16]; 400 mg Compound C (n = 4)
  t1/2 (mean): 16.6 h
  Cmax: 158 ng/mL
  Tmax: 2 h
  AUC(0-inf): 2130 ng·h/mL
  half-life: 16.6 h
[16]; oral administration of Compound C
  share of total exposure (Cmax and AUCinf) compared to the racemate, Compound C: approximately half

## CNCCCN1c2ccccc2CCc2ccccc21 [desipramine, reference compound]
[17]
  struggle intensity compared to saline: increased struggle intensity
  total time immobile compared to saline: decreased total time immobile
